The source made the active and inactive calls. The calls are words filed in the database; no cut-off is given here.

Common to all, as to format: functional, organism-based
In experiment [1] the test system is Felis catus. Kind of experiment: Effect on activity of peroxidase in cat rough endoplasmic reticulum at 7.3 mg/kg, iv administered as single dose measured after 5 hrs.
For experiment [2], the system named is Felis catus. Kind of experiment: Effect on activity of peroxidase in cat rough endoplasmic reticulum at 7.3 mg/kg, iv administered as single dose measured after 9 hrs.
The test system of experiment [3] is Felis catus. Kind of experiment: Reduction in peroxidase-positive secretory granules in cat at 7.3 mg/kg, iv administered as single dose measured after 5 hrs by electron microscopy.
Experiment [4] relates to Felis catus. In words: Increase in electron-lucent secretory granules in cat at 7.3 mg/kg, iv administered as single dose measured after 5 hrs by electron microscopy.
Experiment [5] concerns Felis catus. In words: Effect on localization of peroxidase in rough endoplasmic reticulum of cat at 7.3 mg/kg, iv administered as single dose measured after 30 mins by electron microscopy.
The subject of experiment [6] is Felis catus. Kind of experiment: Effect on localization of peroxidase in secretory granules of cat at 7.3 mg/kg, iv administered as single dose measured after 30 mins by electron microscopy.
In experiment [7] the test system is Felis catus. Kind of experiment: Effect on activity of peroxidase in cat in rough golgi complex at 7.3 mg/kg, iv administered as single dose measured after 9 hrs. The note with it: Golgi body.
In experiment [8] the test system is Felis catus. In words: Decrease in Peroxidase activity in rough endoplasmic reticulum of cat at 8 mg/kg, iv dosed over 7 hours.
In experiment [9] the test system is Felis catus. Kind of experiment: Effect on activity of peroxidase in cat acinar cells at 7.3 mg/kg, iv administered as single dose measured after 30 mins.
Experiment [10] deals with Felis catus. In words: Increase in secretory granules without peroxidase activity in cat at 7.3 mg/kg, iv administered as single dose measured after 9 hrs by electron microscopy.
The subject of experiment [11] is Felis catus. In words: Effect on localization of peroxidase in rough golgi complex of cat at 7.3 mg/kg, iv administered as single dose measured after 30 mins by electron microscopy. The settings on record: Golgi body.
Experiment [12] has as its system Felis catus. In words: Effect on activity of peroxidase in cat in rough golgi complex at 7.3 mg/kg, iv administered as single dose measured after 5 hrs. The settings on record: Golgi body.
The test system of experiment [13] is Felis catus. Kind of experiment: Decrease in Peroxidase activity in acinar cells of the nasal glands of cat at 8 mg/kg, iv dosed over 7 hours.
Experiment [14] relates to Felis catus. In words: Effect on peroxidase reaction product in r-ER, Golgi complex, and secretory granules in acinar cells of cat at 0.3 mg/kg, iv dosed 10 mins before dosing of 7.3 mg/kg, iv propranolol and measured after 60 mins post ligand dose.
In experiment [15] the test system is Felis catus. Kind of experiment: Effect on distribution of peroxidase in acinar cells of cat at 0.3 mg/kg, iv dosed 10 mins before dosing of 7.3 mg/kg, iv propranolol and measured after 20 mins post ligand dose by electron microscopy.
Experiment [16] has as its system Felis catus. Kind of experiment: Increase in granule content containing the peroxidase reaction product discharged into acinar lumen in cat at 0.3 mg/kg, iv after 20 mins.
The test system of experiment [17] is Felis catus. Kind of experiment: Effect on activity of peroxidase in acinar cells of cat at 0.3 mg/kg, iv dosed 10 mins before dosing of 7.3 mg/kg, iv propranolol and measured after 20 mins post ligand dose.
The test system of experiment [18] is Felis catus. Kind of experiment: Effect on distribution of peroxidase in acinar cells of cat at 0.3 mg/kg, iv dosed 10 mins before dosing of 7.3 mg/kg, iv propranolol and measured after 60 mins post ligand dose by electron microscopy.
The subject of experiment [19] is Felis catus. Kind of experiment: Effect on peroxidase reaction product in r-ER, Golgi complex, and secretory granules in acinar cells of cat at 0.3 mg/kg, iv dosed 10 mins before dosing of 7.3 mg/kg, iv propranolol and measured after 20 mins post ligand dose.
Experiment [20] deals with Felis catus. Kind of experiment: Effect on activity of peroxidase in acinar cells of cat at 0.3 mg/kg, iv dosed 10 mins before dosing of 7.3 mg/kg, iv propranolol and measured after 60 mins post ligand dose.
Experiment [21] concerns Felis catus. In words: Reduction in secretion rate of electron dense peroxidase-positive granules in cat at 0.3 mg/kg, iv after 60 mins.

`CC(C)NCC(O)COc1cccc2ccccc12` (stereo unspecified): the result in the experiment on Felis catus [1], in the experiment with Felis catus [2], with Felis catus [5], with Felis catus [6], in the experiment with Felis catus [7] and in the experiment with Felis catus [9] was inactive. The outcome in the experiment with Felis catus [11] and with Felis catus [12] was inactive. The result in the experiment on Felis catus [3], with Felis catus [4], with Felis catus [8], in the experiment with Felis catus [10] and in the experiment with Felis catus [13] was Active.

For the compound `CC(C)NCC(O)c1ccc(O)c(O)c1` (stereo unspecified), the result in the experiment with Felis catus [14], in the experiment with Felis catus [15], with Felis catus [17], in the experiment on Felis catus [18], with Felis catus [19] and with Felis catus [20] was inactive. Further, the result in the experiment with Felis catus [16] and in the experiment on Felis catus [21] was Active.

The values above are taken from ChEMBL document CHEMBL5647687, “Beta-adrenoceptor control of peroxidase synthesis in nasal glands” (Ann Otol Rhinol Laryngol, 1990).
